Experimental findings from ChEMBL document CHEMBL3124883, “Halting HCV Replication with NS5A Inhibitors and NS5B Polymerase Inhibitors: Effective New Treatments of HCV Infection” (ACS Med Chem Lett, 2014) are described below.

Assay [1] deals with Hepatitis C virus. As to the kind of experiment: Antiviral activity against HCV infected in human HuH7 cells assessed as inhibition of RNA replication after 72 hrs by luciferase reporter gene assay. It counts as functional, organism-based. The following applies: Hepacivirus hominis; Huh-7. For orientation: In a reporter assay the amount or activity of a reporter protein is the signal.

Assay [2] concerns Hepatitis C virus. Nature of the assay: Antiviral activity against HCV genotype 1b infected in human HuH7 cells assessed as total cellular RNA after 5 days by RT-PCR analysis. The following applies: Huh-7, 120 h. Format: functional, organism-based, Hepacivirus hominis.

Activity calls are given as the source filed them. The calls are words filed in the database; no cut-off is given here.

On to `C/C(=C\c1ccc2nc(C3(NC(=O)c4ccc5c(C6CCCC6)c(-c6cccc7cc(C)[nH]c67)n(C)c5c4)CCC3)n(C)c2c1)C(=O)O`, for which the inhibition result in the assay with Hepatitis C virus [1] was “Active”.

Turning to `Cn1c(-c2cnccn2)c(C2CCCC2)c2ccc(C(=O)NC3(c4nc5ccc(/C=C/C(=O)O)cc5n4C4CCC4)CCCC3)cc21`, in the assay with Hepatitis C virus [1], the inhibition entry is “Active”.

As usually defined, the EC50 is the concentration at which the effect is half-maximal. For `COC(=O)N[C@@H](CC(C)C)C(=O)N1CCC[C@H]1c1ncc(-c2ccc(-c3ccccc3)cc2)[nH]1`, in the assay on Hepatitis C virus [2], the EC50 stood at 100 nM.

As to `C#Cc1ccc(-c2cn(-c3ccc(-c4cnc(-c5cnc([C@@H]6CCCN6C(=O)[C@@H](NC(=O)OC)C(C)C)[nH]5)[nH]4)cc3)nn2)cc1`, the EC50 in the assay with Hepatitis C virus [2] worked out at 1 nM.

`Cc1c(-c2ccccn2)n(C2CCCC2)c2ccc(C(=O)NC3(c4nc5cc(/C=C/C(=O)O)ccc5n4C)CCC3)cc12`: the inhibition entry in the assay on Hepatitis C virus [1] was “Active”.

With `Cn1c(C2(NC(=O)c3ccc4c(C5CCCC5)c(-c5ccccn5)n(C)c4c3)CCC2)nc2cc(/C=C/C(=O)O)ccc21`, the inhibition entry in the assay with Hepatitis C virus [1] was “Active”.

On to `COC(=O)N[C@H](C(=O)N1C[C@@H](SC)C[C@H]1c1ncc(-c2ccc(-c3ccc(-c4cnc([C@@H]5C[C@H](SC)CN5C(=O)[C@@H](NC(=O)OC)c5ccccc5)[nH]4)cc3)cc2)[nH]1)c1ccccc1`, for which, in the assay on Hepatitis C virus [2], the EC50 was less than 1 nM.
